Measurements taken from patent US11332440B2, “4-oxo-alkylated tetramic acid compound, and preparation method thereof” (priority 2017, dated 2022).
“Also recorded” adds a separate entry of the source. Where two headings read alike, the source gives them in different places.

What was measured:
[1] = tested on: Salmonella typhimurium TA98; experiment: Mini Ames experiment, strain TA98; type: cell-based; conditions: TA98, regardless of the presence or absence of S9
Protocol: Histidine auxotrophic strains of Salmonella typhimurium were cultured in a special medium with quite a low content of histidine. The strains were difficult to divide due to lack of nutrition. If a test compound has mutagenicity, a large number of cells will undergo reverse mutation, synthesizing histidine by themselves and developing into colonies visible to the naked eye. In view of the close relationship between mutagenicity and carcinogenesis of chemicals, this method has been widely used in screening carcinogens. Some chemicals need metabolic activation to induce mutagenicity. Mammalian microsomal enzyme S9 can be added into the test system to eliminate the influence of metabolic activation on generation of mutagenicity.
[…] Mini Ames test with compound 50561

[2] = MTD experiment, dose gradient by gavage; type: in vivo; conditions: both sexes, mouse, in vivo, po, CR mice, by gavage, read-out: maximum tolerance (MTD)
Protocol: (§1) Mice are commonly used rodents to evaluate the toxicity of a test sample and are also an important part of early preclinical safety evaluation. In this experiment, the toxicity of compound 50561 was tested by administering a dose gradient thereof to the mice by gavage and observing its toxicity.
(§2) This experiment was designed such that for each dose centration, 10 mice were tested, including half males and half females. The males each weighed about 18-23 grams, and the females each weighed about 17-21 grams. They were randomly grouped by a simple randomization procedure. All the animals used in the experiment weighed between ±20% of the average body weight of their respective genders. If there are not enough animals in the study to meet the weight range required thereby, notify the responsible person of the project to take reasonable measures. Animals must be adapted to the laboratory for at least three days. During this period, daily cage observation was conducted once a day, and a detailed clinical observation was necessary before the experiment. Any animal with symptoms or physical abnormalities would be reported to the attending veterinarian and responsible person of the project, and excluded whenever possible. Animals suitable for experimentation will be assigned to respective experimental groups according to the random grouping method described above.
(§3) During the experiment, after administration, all animals were observed continuously for 4 hours; from the end of administration till 3 days thereafter, observations were carried out twice each day, one in the morning and the other in the afternoon; and then observation was carried out once a day. Observations included but were not limited to: skin, hair, eyes, ears, nose, mouth, chest, abdomen, external genitals, limbs, and feet. The respiratory and circulatory systems, autonomic effects (such as salivation), and nervous system (such as tremors, convulsions, stress responses, and abnormal behaviors) should be focused on. Complete anatomical examinations would be performed on all animals that had died, were dying, or planned to be euthanized. Animals found dead outside of fixed working hours could be placed in the refrigerator overnight and dissected immediately on the next working day. At the end of the experiment (14th day after administration), all animals requiring autopsy would be euthanized and autopsied.
(§4) External abnormalities in animals, such as palpable masses, should be examined in detail. The skin would be cut along the midline of the abdomen, and any subcutaneous mass would be confirmed in conjunction with the findings in the observations of animal symptoms. […] Diseased organs were removed, weighed, recoded, and kept in a fixative fluid.

CR mice = experiment: MTD experiment, dose gradient by gavage; type: in vivo
Protocol: as §1, §2, §3, §4

## O=C1C=C(OCc2ccc(F)cc2)[C@H](Cc2ccccc2)N1 [Compound 50561]
[1]
  change in the number of colonies / mutagenicity: did not cause more than twice of a change in the number of colonies; also recorded: no obvious mutagenicity
[2]; CR
  MTD at 14 days: < 500 mg/kg
[2]
  MTD at 14 days: ≥ 250 mg/kg
CR mice; 250 mg/kg by gavage
  Body weight decreased: Body weight decreased by about 2 g, which
  Remarks: in good condition.
CR mice; 500 mg/kg by gavage
  Body weight decreased: Body weight decreased by about 2 g;
  Remarks: individual activity decreased; and the body
CR mice; 750 mg/kg by gavage
  Remarks: No abnormality of organs in dead individuals.
CR mice; 1000 mg/kg by gavage
  Remarks: No abnormality of organs in dead individuals.
